# Laboratory results published in patent US20250011881A1, “MYC-HSF1 DUAL AMPLIFICATION AS A BIOMARKER FOR CANCER TREATMENT” (The Trustees of Indiana University, priority 2023, published 2025).
# Values joined by “and” are separate entries in the source; they are usually repeats but may differ in a detail not shown here. Identical values can stand only once. Counter-ions that a name gives are not always drawn.
# Test system: ovarian cancer cells with (OVCAR8, OVCAR4) or without (OVSAHO, CAOV3) MYC-HSF1 amplification
# Assay: Epigenetic inhibitor drug screen, cell viability (Cell Titer Blue)
# Format: cell-based
# Conditions: not given
row,Compound,Non Amp - AMP (POC) 10 uM [POC]
1,[NH2][Pt]1([NH2])[O]CC(=O)[O]1 [Nedaplatin],−10.66
2,Cc1ccc(-n2sc3ccccc3c2=O)cc1 [PBIT],−46.19
3,CC(C)(C)c1nc2c3cc[nH]c(=O)c3c3cc(F)ccc3c2[nH]1 [Pyridone 6],−0.4008
4,"C/C=C1\NC(=O)[C@H]2CSSCC/C=C/[C@H](CC(=O)N[C@H](C(C)C)C(=O)N2)OC(=O)[C@H](C(C)C)NC1=O [Romidepsin (FK229, depsipeptide), Romidepsin]",4.459

# Same assay, conditions: 10 µM
row,Compound,Non Amp - AMP (POC) 10 uM [POC]
1,COc1ccc(Cn2ccc3ccc(C(=O)NO)cc32)cc1 [PCI 34051],−4.834

# Same assay, conditions: 10 uM, 48 hrs; average relative cell viability (vs 1% DMSO) of non-amplified cells (OVSAHO, CAOV3) minus that of MYC-HSF1 amplified cells (OVCAR8, OVCAR4); positive = greater response in amplified cells
row,Compound,Non Amp - AMP (POC) 10 uM [POC]
1,O=[N+]([O-])c1ccc(Sc2cccc[n+]2[O-])c2nonc12 [NSC228155],4.767
2,O=S(=O)(O)c1ccc2cc(N=Nc3cc(S(=O)(=O)O)c4cccnc4c3O)ccc2c1 [NSC 87877],8.877
3,C[C@@H]1O[C@@H](CC(=O)O)CC2=C1C(=O)c1c(O)cccc1C2=O [Nanaomycin A],2.594
4,CCCCN(Cc1ccc(C(=O)NO)cc1)C(=O)Nc1ccccc1 [Nexturastat A],23.67
5,NC(=O)c1cccnc1 [Nicotinamide],−2.471
6,CN1CCN(c2ccc(-c3cccc(CN4CCOCC4)c3)cc2NC(=O)c2c[nH]c(=O)cc2C(F)(F)F)CC1 [OICR-9429],12.58
7,CCCCCCCCOC(=O)C(O)CCC(=O)O (stereo not drawn) [Octyl-a-hydroxyglutarate],0.5587
8,CC1COc2c(N3CCN(C)CC3)c(F)cc3c(=O)c(C(=O)O)cn1c23 (stereo not drawn) [Ofloxacin],5.913
9,"O=C(c1cc(Cc2n[nH]c(=O)c3ccccc23)ccc1F)N1CCN(C(=O)C2CC2)CC1 [Olaparib (AZD2281, Ku-0059436), Olaparib]",3.527
10,Nc1ccccc1NC(=O)CCCCCC(=O)Nc1ccccc1 [PAOA],29.57
11,CCCOc1ccc(CCc2nc3cc(-c4c(C)noc4C)ccc3n2CCN2CCOCC2)cc1.Cl [PF-CBP1 hydrochloride],9.953
12,O=C([C@@H](Cc1cccc(C(F)(F)F)c1)NS(=O)(=O)c1cc(F)c2c(c1)CCNC2)N1CCCC1 [PFI-2],−2.63
13,CCc1cccc(CC)c1NC(=O)N1Cc2n[nH]c(NC(=O)c3ccc(N4CCN(C)CC4)cc3)c2C1 [PHA-680632],−11.28
14,CN(C)CC(=O)Nc1ccc2[nH]c(=O)c3ccccc3c2c1.Cl [PJ34 hydrochloride],3.696
15,O=C1C(=Cc2cccnc2)C(=O)c2ccccc21 [PRT4165],1.398
16,O=C(CBr)c1ccc(O)cc1 [PTP Inhibitor I],−3.586
17,CCC(C)SSc1ncc[nH]1 (stereo not drawn) [PX 12],−7.518

row,Compound,Non Amp - AMP (POC) 10 uM [POC]
1,"C1=C/COCc2cc(ccc2OCCN2CCCC2)Nc2nccc(n2)-c2cccc(c2)COC/1 [Pacritinib (SB1518), Pacritinib]",−2.391
2,[H]/N=C(/N)N/C(=N/[H])NCCc1ccccc1 [Phenformin HCl],7.32
3,NC(=O)c1ccccn1 [Picolinamide],20.35
4,COc1cccc2c1C(=O)c1c(O)c3c(c(O)c1C2=O)C[C@@](O)(C(=O)CO)C[C@@H]3O[C@H]1C[C@H](N)[C@H](O[C@@H]2CCCCO2)[C@H](C)O1 [Pirarubicin],6.408
5,CC1=CC(=O)c2c(O)cccc2C1=O [Plumbagin],4.102
6,CCN(CC)CCNC(=O)c1ccc(N)cc1 [Procainamide HCl],4.095
7,CNNCc1ccc(C(=O)NC(C)C)cc1 [Procarbazine HCl],1.149
8,O=C(CCCCCCC(=O)Nc1cccnc1)NO [Pyroxamide],60.34
9,CN1CCN(C(=O)CN[C@H]2C[C@@H]2c2ccc(OCc3ccccc3)cc2)CC1.Cl.Cl [RN-1 (hydrochloride)],−2.198
10,NC(=O)c1cccc(NC(=O)/C=C/c2c[nH]c3ccccc23)c1 [RSC-133],26.08
11,C[C@@H]1O[C@@H](O[C@H]2[C@H](O[C@H]3[C@H](O[C@H]4CC[C@]5(C)[C@H]6CC=C7[C@@H]8CC(C)(C)CC[C@]8(C(=O)O)CC[C@@]7(C)[C@]6(C)CC[C@H]5C4(C)C)OC[C@H](O)[C@@H]3O)O[C@H](CO)[C@@H](O)[C@@H]2O)[C@H](O)[C@H](O)[C@H]1O [Raddeanin A],2.609
12,N#Cc1ccc(-c2csc(NN=C3CCCC3)n2)cc1 [Remodelin],13.34
13,"CN(C)Cc1ccc(S(=O)(=O)n2ccc(/C=C/C(=O)NO)c2)cc1 [Resminostat (hydrochloride), Resminostat]",36.33
14,Oc1ccc(C=Cc2cc(O)cc(O)c2)cc1 [Resveratrol],0.9482
15,c1nc2nc(Nc3ccc(N4CCOCC4)cc3)nc(NC3CCCCC3)c2[nH]1 [Reversine],−6.769
16,CS(=O)(=O)O.Cn1cc(C2=C(c3cn(CCCSC(=N)N)c4ccccc34)C(=O)NC2=O)c2ccccc21 [Ro 31-8220 Mesylate],3.048
17,"O=C(CCCCCCNC(=O)c1cnc(N(c2ccccc2)c2ccccc2)nc1)NO [Rocilinostat (ACY-1215), Rocilinostat]",32.23

# Same assay, conditions: 10 uM, 48 hrs; average relative cell viability (vs 1% DMSO) of non-amplified cells (OVSAHO, CAOV3) minus that of MYC-HSF1 amplified cells (OVCAR8, OVCAR4); positive = greater response in amplified cells; 10 µM
row,Compound,Non Amp - AMP (POC) 10 uM
1,O=Nc1ccc(O)c2ncccc12 [NSC 3852],27.71 POC
2,Fc1cc(-c2cccc3ncc(-c4cnn(C5CCNCC5)c4)nc23)cc(F)c1CN1CCOCC1 [NVP-BSK805 2HCl],−12.67 POC
3,Fc1cc(-c2cccc3ncc(-c4cnn(C5CCNCC5)c4)nc23)cc(F)c1CN1CCOCC1 [NVP-BSK805],−1.371 POC
4,Cc1sc2c(c1C)C(c1ccc(Cl)cc1)=N[C@@H](CC(=O)Nc1ccc(O)cc1)c1nnc(C)n1-2 [OTX015],15.65 POC
5,CN(C)Cc1c(C(=O)NCCOc2ccc(C(=O)NO)cc2)oc2ccccc12 [PCI 24781],42.57 POC
6,COc1ccccc1S(=O)(=O)Nc1ccc2c(c1)CN(C)C(=O)N2 [PFI-1],9.637 POC
7,Cl.O=C([C@@H](Cc1cccc(C(F)(F)F)c1)NS(=O)(=O)c1cc(F)c2c(c1)CCNC2)N1CCCC1 [PFI-2 (hydrochloride)],2.189 POC
8,O=C(/C=C/N1C[C@H]2C[C@@H]1CN2c1ccccn1)c1ccccc1O [PFI-3],12.92 POC
9,COc1ccccc1C(=O)Nc1cc2c(cc1N1CCCC1)n(C)c(=O)n2C [PFI-4],17.43 POC
10,Cc1[nH]c2ccccc2c1CCNCc1ccc(/C=C/C(=O)NO)cc1 [Panobinostat],41.46 POC
11,O=C(O)C(Cc1c[nH]c2ccccc12)N1C(=O)c2ccccc2C1=O (stereo not drawn) [RG108],17.36 POC
12,COc1cc(OC)c2c(=O)[nH]c(-c3cc(C)c(OCCO)c(C)c3)nc2c1 [RVX-208],12.33 POC and 7.058 POC
13,"CNCc1ccc(-c2[nH]c3cc(F)cc4c3c2CCNC4=O)cc1 [Rucaparib (AG-014699, PF-01367338), Rucaparib]",0.4948 POC

# Same assay, conditions: 10 uM, 48 hrs; average relative cell viability (vs 1% DMSO) of non-amplified cells (OVSAHO, CAOV3) minus that of MYC-HSF1 amplified cells (OVCAR8, OVCAR4); positive = greater response in amplified cells; listed as OTX-015, 10 µM
row,Compound,Non Amp - AMP (POC) 10 uM [POC]
1,Cc1sc2c(c1C)C(c1ccc(Cl)cc1)=N[C@@H](CC(=O)Nc1ccc(O)cc1)c1nnc(C)n1-2 [OTX015],2.251

# Same assay, conditions: 10 uM, 48 hrs; average relative cell viability (vs 1% DMSO) of non-amplified cells (OVSAHO, CAOV3) minus that of MYC-HSF1 amplified cells (OVCAR8, OVCAR4); positive = greater response in amplified cells; listed as PCI-24781 (CRA-024781), 10 µM
row,Compound,Non Amp - AMP (POC) 10 uM [POC]
1,CN(C)Cc1c(C(=O)NCCOc2ccc(C(=O)NO)cc2)oc2ccccc12 [PCI 24781],28.7

# Same assay, conditions: 10 uM, 48 hrs; average relative cell viability (vs 1% DMSO) of non-amplified cells (OVSAHO, CAOV3) minus that of MYC-HSF1 amplified cells (OVCAR8, OVCAR4); positive = greater response in amplified cells; listed as PFI 3, 10 µM
row,Compound,Non Amp - AMP (POC) 10 uM [POC]
1,O=C(/C=C/N1C[C@H]2C[C@@H]1CN2c1ccccn1)c1ccccc1O [PFI-3],5.077

# Same assay, conditions: 10 uM, 48 hrs; average relative cell viability (vs 1% DMSO) of non-amplified cells (OVSAHO, CAOV3) minus that of MYC-HSF1 amplified cells (OVCAR8, OVCAR4); positive = greater response in amplified cells; listed as PFI 4, 10 µM
row,Compound,Non Amp - AMP (POC) 10 uM [POC]
1,COc1ccccc1C(=O)Nc1cc2c(cc1N1CCCC1)n(C)c(=O)n2C [PFI-4],−0.5403

# Same assay, conditions: 10 uM, 48 hrs; average relative cell viability (vs 1% DMSO) of non-amplified cells (OVSAHO, CAOV3) minus that of MYC-HSF1 amplified cells (OVCAR8, OVCAR4); positive = greater response in amplified cells; listed as PFI-1 (PF-6405761), 10 µM
row,Compound,Non Amp - AMP (POC) 10 uM [POC]
1,COc1ccccc1S(=O)(=O)Nc1ccc2c(c1)CN(C)C(=O)N2 [PFI-1],2.51

# Same assay, conditions: 10 uM, 48 hrs; average relative cell viability (vs 1% DMSO) of non-amplified cells (OVSAHO, CAOV3) minus that of MYC-HSF1 amplified cells (OVCAR8, OVCAR4); positive = greater response in amplified cells; listed as Panobinostat (LBH589), 10 µM
row,Compound,Non Amp - AMP (POC) 10 uM [POC]
1,Cc1[nH]c2ccccc2c1CCNCc1ccc(/C=C/C(=O)NO)cc1 [Panobinostat],27.26

# Same assay, conditions: 10 uM, 48 hrs; average relative cell viability (vs 1% DMSO) of non-amplified cells (OVSAHO, CAOV3) minus that of MYC-HSF1 amplified cells (OVCAR8, OVCAR4); positive = greater response in amplified cells; listed as RG 108, 10 µM
row,Compound,Non Amp - AMP (POC) 10 uM [POC]
1,O=C(O)C(Cc1c[nH]c2ccccc12)N1C(=O)c2ccccc2C1=O (stereo not drawn) [RG108],−2.615

# Same assay, conditions: listed as PCI-34051, 10 µM
row,Compound,Non Amp - AMP (POC) 10 uM [POC]
1,COc1ccc(Cn2ccc3ccc(C(=O)NO)cc32)cc1 [PCI 34051],−22.68
